Results published in publication PMC11882969 (Nature Communications, 2025).
Like-named read-outs stand apart in the source and are kept apart here.

Assays:
CB1 (rCB1) [1] = biological target: T1, CB1 (rCB1) (Rattus norvegicus, UniProt P20272); assay: Radioligand competition binding, [3H]-CP-55,940, rat brain membranes
CB1 (rCB1) [2] = biological target: T1, CB1 (rCB1); assay: Single-point radioligand displacement screen; assay type: binding; conditions: 10 µM, 1 µM or 300 nM by cell colour (not visible)
hCB1 = hCB1 (Homo sapiens, UniProt P21554); assay: bioSensAll ebBRET signaling profiling, hCB1; assay type: cell-based; design: host or cells: HEK293SL cells, transient PEI transfection; conditions: for Barr2+GRK2 hCB1 response: Barr2+GRK2 biosensor; for Gi1 hCB1 / GoB hCB1: single replicate values, FigS6a; for EC50: read-out: EC50 [95% CI]; for Emax: normalized to CP-55,940
Chain of hCB1 (P21554 whole entry): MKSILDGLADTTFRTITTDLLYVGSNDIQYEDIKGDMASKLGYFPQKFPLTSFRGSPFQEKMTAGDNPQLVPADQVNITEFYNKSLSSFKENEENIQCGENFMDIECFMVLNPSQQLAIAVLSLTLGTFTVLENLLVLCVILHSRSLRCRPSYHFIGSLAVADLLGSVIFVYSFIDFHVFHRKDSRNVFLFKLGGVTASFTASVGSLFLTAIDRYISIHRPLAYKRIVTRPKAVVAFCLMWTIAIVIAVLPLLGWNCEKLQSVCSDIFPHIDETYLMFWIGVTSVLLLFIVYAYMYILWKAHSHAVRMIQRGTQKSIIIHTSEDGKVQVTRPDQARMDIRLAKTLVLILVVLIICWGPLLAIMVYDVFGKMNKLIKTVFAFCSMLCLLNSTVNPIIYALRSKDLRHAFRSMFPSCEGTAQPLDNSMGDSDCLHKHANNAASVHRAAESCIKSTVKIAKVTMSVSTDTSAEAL

T1 sequence (P20272 whole entry): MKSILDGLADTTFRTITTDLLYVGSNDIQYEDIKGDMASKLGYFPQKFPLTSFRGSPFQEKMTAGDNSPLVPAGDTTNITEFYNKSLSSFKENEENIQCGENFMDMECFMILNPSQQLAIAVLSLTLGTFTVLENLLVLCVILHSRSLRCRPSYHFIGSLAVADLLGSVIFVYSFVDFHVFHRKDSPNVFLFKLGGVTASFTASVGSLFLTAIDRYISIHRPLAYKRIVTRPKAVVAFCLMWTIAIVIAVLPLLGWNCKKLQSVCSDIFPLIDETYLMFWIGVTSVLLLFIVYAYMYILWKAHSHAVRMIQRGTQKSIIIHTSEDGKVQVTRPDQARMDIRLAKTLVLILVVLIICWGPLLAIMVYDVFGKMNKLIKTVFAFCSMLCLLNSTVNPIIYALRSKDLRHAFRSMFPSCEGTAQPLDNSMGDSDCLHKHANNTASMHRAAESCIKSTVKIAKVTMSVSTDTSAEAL

With `Cc1nn(Cc2ccc(Cl)cc2)c(C)c1C(=O)OCC1CSc2ccccc2O1` (centres unmarked) [‘5463] the “pKi [95% CI]” value (CB1 (rCB1) [1]; rCB1) was 6.1 [5.8 – 6.4], the Ki (CB1 (rCB1) [1]; read-out: Ki [95% CI], rCB1, [3H]-CP-55,940) was 0.825 µM and the “% 1H-CP-55,940 displacement (mean) from single point screen” value (CB1 (rCB1) [2]) was 81.83%. For the same molecule, the “Barr2+GRK2 hCB1 response” value (hCB1; Log [Compound] (M) -4.22186) was -7.036, the “Barr2+GRK2 hCB1 response” value (hCB1; Log [Compound] (M) -4.63927) was -40.2196 and the “Barr2+GRK2 hCB1 response” value (hCB1; Log [Compound] (M) -5.05788) was -35.4335. The “Barr2+GRK2 hCB1 response” value (hCB1; Log [Compound] (M) -5.47381) was -41.4959, the “Barr2+GRK2 hCB1 response” value (hCB1; Log [Compound] (M) -5.89285) was -45.6439 and the “Barr2+GRK2 hCB1 response” value (hCB1; Log [Compound] (M) -6.31878) was -47.8774. The “Barr2+GRK2 hCB1 response” value (hCB1; Log [Compound] (M) -6.72585) was -53.9398, the “Barr2+GRK2 hCB1 response” value (hCB1; Log [Compound] (M) -7.14267) was -43.7294 and the “Barr2+GRK2 hCB1 response” value (hCB1; Log [Compound] (M) -7.55284) was -45.9629. For the same molecule, the “Barr2+GRK2 hCB1 response” value (hCB1; Log [Compound] (M) -8) was -54.2588, the “Barr2+GRK2 hCB1 response” value (hCB1; Log [Compound] (M) -8.22186) was -7.036 and the “Barr2+GRK2 hCB1 response” value (hCB1; Log [Compound] (M) -8.39794) was -23.3088. For the same molecule, the “Barr2+GRK2 hCB1 response” value (hCB1; Log [Compound] (M) -8.68787) was -41.1769, the “Barr2+GRK2 hCB1 response” value (hCB1; Log [Compound] (M) -9.15521) was -53.6207 and the “Barr2+GRK2 hCB1 response” value (hCB1; Log [Compound] (M) -9.61989) was -38.9433. The “Barr2+GRK2 hCB1 response” value (hCB1; Log [Compound] (M) -10.0969) was -52.3444, the “Barr2+GRK2 hCB1 response” value (hCB1; Log [Compound] (M) -10.5529) was -37.0289 and the “Barr2+GRK2 hCB1 response” value (hCB1; Log [Compound] (M) -11.0177) was -49.4727. The “Barr2+GRK2 hCB1 response” value (hCB1; Log [Compound] (M) -11.4949) was -43.0913, the “Barr2+GRK2 hCB1 response” value (hCB1; Log [Compound] (M) -11.9208) was -24.266 and the “Barr2+GRK2 hCB1 response” value (hCB1; Log [Compound] (M) -12.3979) was -7.993. For the same molecule, the “Barr2+GRK2 hCB1 response” value (hCB1; Log [Compound] (M) -12.8861) was -18.5227, the “Barr2+GRK2 hCB1 response” value (hCB1; Log [Compound] (M) -13.3979) was 10.832 and the “Gi1 hCB1” value (hCB1; Log [Compound] (M) -4.22186) was 28.0981. For the same molecule, the “GoB hCB1” value (hCB1; Log [Compound] (M) -4.22186) was 24.5257, the “Gi1 hCB1” value (hCB1; Log [Compound] (M) -4.63927) was 21.0665 and the “GoB hCB1” value (hCB1; Log [Compound] (M) -4.63927) was 14.8206. For the same molecule, the “Gi1 hCB1” value (hCB1; Log [Compound] (M) -5.05788) was 16.6796, the “GoB hCB1” value (hCB1; Log [Compound] (M) -5.05788) was 10.4802 and the “Gi1 hCB1” value (hCB1; Log [Compound] (M) -5.47381) was 14.3358. The “GoB hCB1” value (hCB1; Log [Compound] (M) -5.47381) was 11.0879, the “Gi1 hCB1” value (hCB1; Log [Compound] (M) -5.89285) was 7.716 and the “GoB hCB1” value (hCB1; Log [Compound] (M) -5.89285) was 6.331. The “Gi1 hCB1” value (hCB1; Log [Compound] (M) -6.31878) was 3.392, the “GoB hCB1” value (hCB1; Log [Compound] (M) -6.31878) was 2.3203 and the “Gi1 hCB1” value (hCB1; Log [Compound] (M) -6.72585) was -0.6618. The “GoB hCB1” value (hCB1; Log [Compound] (M) -6.72585) was -6.013, the “Gi1 hCB1” value (hCB1; Log [Compound] (M) -7.14267) was -2.705 and the “GoB hCB1” value (hCB1; Log [Compound] (M) -7.14267) was -6.777. The “Gi1 hCB1” value (hCB1; Log [Compound] (M) -7.55284) was -2.958, the “GoB hCB1” value (hCB1; Log [Compound] (M) -7.55284) was -3.8083 and the “Gi1 hCB1” value (hCB1; Log [Compound] (M) -8) was -2.752. For the same molecule, the “GoB hCB1” value (hCB1; Log [Compound] (M) -8) was -8.791, the “Gi1 hCB1” value (hCB1; Log [Compound] (M) -8.22186) was 6.512 and the “GoB hCB1” value (hCB1; Log [Compound] (M) -8.22186) was 0.4626. The “Gi1 hCB1” value (hCB1; Log [Compound] (M) -8.39794) was -3.021, the “GoB hCB1” value (hCB1; Log [Compound] (M) -8.39794) was -7.2806 and the “Gi1 hCB1” value (hCB1; Log [Compound] (M) -8.68787) was 0.4468. For the same molecule, the “GoB hCB1” value (hCB1; Log [Compound] (M) -8.68787) was -0.5617, the “Gi1 hCB1” value (hCB1; Log [Compound] (M) -9.15521) was -1.422 and the “GoB hCB1” value (hCB1; Log [Compound] (M) -9.15521) was -2.124. The “Gi1 hCB1” value (hCB1; Log [Compound] (M) -9.61989) was -0.7093, the “GoB hCB1” value (hCB1; Log [Compound] (M) -9.61989) was -5.475 and the “Gi1 hCB1” value (hCB1; Log [Compound] (M) -10.0969) was -1.0102. The “GoB hCB1” value (hCB1; Log [Compound] (M) -10.0969) was -3.201, the “Gi1 hCB1” value (hCB1; Log [Compound] (M) -10.5529) was -0.3926 and the “GoB hCB1” value (hCB1; Log [Compound] (M) -10.5529) was -3.652. The “Gi1 hCB1” value (hCB1; Log [Compound] (M) -11.0177) was -0.8518, the “GoB hCB1” value (hCB1; Log [Compound] (M) -11.0177) was -4.381 and the “Gi1 hCB1” value (hCB1; Log [Compound] (M) -11.4949) was -1.279. For the same molecule, the “GoB hCB1” value (hCB1; Log [Compound] (M) -11.4949) was -3.965, the “Gi1 hCB1” value (hCB1; Log [Compound] (M) -11.9208) was -2.99 and the “GoB hCB1” value (hCB1; Log [Compound] (M) -11.9208) was -2.853. The “Gi1 hCB1” value (hCB1; Log [Compound] (M) -12.3979) was -0.25, the “GoB hCB1” value (hCB1; Log [Compound] (M) -12.3979) was -4.034 and the “Gi1 hCB1” value (hCB1; Log [Compound] (M) -12.8861) was -2.879. The “GoB hCB1” value (hCB1; Log [Compound] (M) -12.8861) was -4.451, the “Gi1 hCB1” value (hCB1; Log [Compound] (M) -13) was -0.7885 and the “GoB hCB1” value (hCB1; Log [Compound] (M) -13) was -4.468. For the same molecule, the “Gi1 hCB1” value (hCB1; Log [Compound] (M) cell empty) was 0.7319, the “GoB hCB1” value (hCB1; Log [Compound] (M) cell empty) was -2.437 and the “pEC50 [95% CI]” value (hCB1; hCB1 Gi1) was 5.3 [3.4 – 5.8]. The “pEC50 [95% CI]” value (hCB1; hCB1 GoB) was 5.1 [6.0], the EC50 (hCB1; hCB1 Gi1) was 4.94 µM and the EC50 (hCB1; hCB1 GoB) was 7.47 µM. The Emax (hCB1; read-out: Emax [95% CI], hCB1 Gi1) was 31% and the Emax (hCB1; read-out: Emax [95% CI], hCB1 GoB) was 32%.
